Converted amounts (≈) assume the structure as drawn.
Experiments:
lupus nephritis = experiment: Lupus nephritis MRL/lpr mice: urinary protein, Scr, BUN, urinary Kim-1 and β-MG; type: in vivo; set-up: Scr / BUN / Kim-1 / β-MG: unit not given here; conditions: oral 30 mg/kg, 8 weeks
Protocol: RT Supermix for qPCR, Nanjing Vazyme Biotech Co., Ltd.; Urea Colorimetric Test Kit, Creatinine Colorimetric Test Kit, Nanjing Jiancheng Biotechnology Co., Ltd.; Urinary Kim-1 and β-MG Content ELISA Kits, Abcam. • Experimental animals: MRL/MpJ and MRL/lpr mice, female, 10 weeks old, purchased from GemPharmatech LLC. Production license number: SCXK(Su)2023-0009. […] They were acclimated for 7 days before use in experiments. […] Oral administration was performed continuously for 8 weeks. […] Aspirate the serum, aliquot it, and store at -70 °C for future use. After blood collection, euthanize mice by cervical dislocation. Open the abdominal cavity, remove kidneys, and dissect out perirenal fat and capsules. […] Store remaining tissues at -70 °C for future use. Serum Creatinine (Scr) and Blood Urea Nitrogen (BUN) Assay: […] Samples were added sequentially strictly according to the kit instructions, incubated at 37 °C, and measured for absorbance values using an enzyme-linked immunosorbent assay (ELISA) reader. The concentration levels of each indicator were calculated based on the standard curve.

[1] = test system: inflammatory factors (TNF, IL-6, IL-1); experiment: Lupus nephritis MRL/lpr mice: Q-PCR of renal inflammatory factors; type: in vivo; conditions: kidney mRNA, oral 30 mg/kg, 8 weeks
Protocol: Production license number: SCXK(Su)2023-0009. […] They were acclimated for 7 days before use in experiments.
Oral administration was performed continuously for 8 weeks.
Allow blood to stand at room temperature for 2 hours, then centrifuge at 3000 rpm for 20 minutes. Aspirate the serum, aliquot it, and store at -70 °C for future use. After blood collection, euthanize mice by cervical dislocation. Open the abdominal cavity, remove kidneys, and dissect out perirenal fat and capsules. […] Store remaining tissues at -70 °C for future use.
Additional primer information is as follows: Table 19. Q-PCR Primer Information

[2] = test system: fibrosis-related factors (Acta2, Col1a1, Tgfb1); experiment: CCl4 acute liver injury model in mice: Q-PCR of fibrosis-related factors in liver; type: in vivo, C57BL/6 mice; conditions: liver mRNA, 200 mg/kg
Protocol: They were acclimated for 7 days before use in experiments. • Experimental Methods: Establishment of Acute Liver Injury Model in Mice and Group-Specific Drug Administration • Mice were randomly assigned to groups. One group was arbitrarily designated as the normal group, while the remaining groups served as model group, Compound 1 group, Hydrochloride 20 group, Fumarate 21 group, and Silibinin group, with 6 mice per group. Except for the normal group receiving 10 mL olive oil/kg via injection, all other mice received 0.5 mL CCl4 + 9.5 mL olive oil/kg body weight via intraperitoneal injection, maintaining a CCl4 to olive oil ratio of 1:19. Starting from day 1 of modeling, Compound 1, Hydrochloride 20, and Fumarate 21 were administered orally for 3 consecutive days. […] The blood was allowed to stand at room temperature for 2 hours, then centrifuged at 3000 rpm for 20 minutes. Serum was aspirated, aliquoted, and stored at -70 °C for future use. After blood collection, euthanize mice by cervical dislocation. Perform laparotomy to remove the liver. Rinse twice with pre-chilled PBS. Excise the left hepatic lobe tissue. […] Store remaining tissue at -70 °C for future use. • Serum AST and ALT Assay: Use 10 µL of each sample for testing. Determine mouse serum AST and ALT levels according to the operating manual. Measure absorbance at 510 nm using an enzyme-linked immunosorbent assay (ELISA) reader. Calculate sample concentration (U/L) based on the standard curve.
Q-PCR Analysis: Tissue total RNA extraction, cDNA synthesis, and PCR amplification methods are identical to Example 4. Additional primer information is as follows:
Data Statistics: All data are expressed as means ± standard error of the mean (S.E.M.). Differences were analyzed for significance using analysis of variance (ANOVA). For groups showing significant differences in ANOVA, one-way ANOVA followed by Dunnett's test was performed to compare intergroup differences.

[3] = test system: CCl4-induced liver injury; experiment: CCl4 acute liver injury model in mice: serum ALT and AST; type: in vivo, C57BL/6 mice; conditions: 200 mg/kg (method: U/L)
Text: The drug of the present invention, prepared according to Example 2; Silybin, Shanghai Yuanye Biotechnology Co., Ltd.; Olive oil, Beijing […] Olive Oil Development Center; Analytical grade carbon tetrachloride (CCl4), Shantou Xilong Chemical Factory; Sodium carboxymethyl cellulose (CMC-Na), Guangdong Shantou Xilong Chemical Factory; RNA Isolater Total RNA Extraction Reagent, […] RT Supermix for qPCR, Nanjing Vazyme Biotech Co., Ltd.; AceQ qPCR SYBR Green Master Mix, Shanghai Yeasen Biotechnology Co., Ltd.; Aspartate Transaminase (AST/GOT) Colorimetric Test Kit, Alanine Transaminase (ALT/GPT) Colorimetric Test Kit, Wuhan Elabscience Biotechnology Co., Ltd. • Experimental animals: […] SCXK(Su)2019-002. […] They were acclimated for 7 days before use in experiments. • Experimental Methods: Establishment of Acute Liver Injury Model in Mice and Group-Specific Drug Administration • Mice were randomly assigned to groups. […] One hour after the final drug administration, blood was collected from the retinal venous plexus. […] Serum was aspirated, aliquoted, and stored at -70 °C for future use. After blood collection, euthanize mice by cervical dislocation. Perform laparotomy to remove the liver. Rinse twice with pre-chilled PBS. Excise the left hepatic lobe tissue. […] Store remaining tissue at -70 °C for future use. • Serum AST and ALT Assay: Use 10 μL of each sample for testing. Determine mouse serum AST and ALT levels according to the operating manual. Measure absorbance at 510 nm using an enzyme-linked immunosorbent assay (ELISA) reader. Calculate sample concentration (U/L) based on the standard curve. Data Statistics: All data are expressed as means ± standard error of the mean (S.E.M.). Differences were analyzed for significance using analysis of variance (ANOVA). For groups showing significant differences in ANOVA, one-way ANOVA followed by Dunnett's test was performed to compare intergroup differences.

CCR2 mRNA = CCR2 mRNA level in MDSCs (PCR); type: cell-based, mice; conditions: CCR2 mRNA levels in MDSCs, 2 h
Protocol: Mice were euthanized by cervical dislocation and immersed in 75% ethanol solution for 5 min. Under sterile conditions, the tibia was removed, both ends of the bone were cut, and bone marrow was repeatedly flushed into a 15 mL centrifuge tube using a 1 mL syringe filled with culture medium. Centrifuge at 1600 rpm for 5 min to collect bone marrow cells. Wash twice with 1×PBS, then resuspend in RPMI 1640 complete medium containing GM-CSF (10 ng/mL) + IL-4 (10 ng/mL) and transfer to a cell culture dish to stimulate differentiation of bone marrow cells into MDSCs. Count cells and adjust density to 1 × 10^6 cells/mL in complete medium. Seed cells uniformly into 6-well plates at 2 mL per well. […] After incubation, collect cells into centrifuge tubes, centrifuge at 1600 rpm for 5 min, wash once with 1×PBS, and add 500 µL RNA extraction reagent to each tube. After centrifugation to obtain the pellet, add 20 µL DEPC-treated water to each tube to dissolve the pellet. Determine RNA concentration and reverse transcribe to cDNA. Add the cDNA, primers, and reverse transcriptase to a 96-well plate. Centrifuge at 4000 rpm for 5 min, then place in a PCR instrument for detection.

MDSCs = experiment: Inhibition of MDSC chemotaxis (Transwell, Hepa1-6 tumor-conditioned medium); type: cell-based, mice; conditions: 12 h treatment, 24 h Transwell
Protocol: Hepa1-6 mouse hepatocellular carcinoma cells were uniformly seeded into 6-well plates. After cells reached confluence, supernatant was aspirated, and 1-1.5 mL fresh medium was added to each well. Following 24 h culture, supernatant was collected, centrifuged at 1600 rpm for 5 min, aspirated, and filtered through a 0.22 µm membrane to obtain tumor-conditioned medium for subsequent use. Euthanize mice by cervical dislocation and immerse in 75% ethanol solution for 5 min. Under sterile conditions, remove the tibia, cut both ends of the bone, and aspirate the bone marrow into a 1 mL syringe. Repeat flushing into a 15 mL centrifuge tube. Centrifuge at 1600 rpm for 5 min to collect bone marrow cells. Wash twice with 1×PBS. Resuspend cells in complete RPMI 1640 medium containing cytokines GM-CSF (10 ng/mL) and IL-4 (10 ng/mL) to stimulate differentiation into MDSCs. Count cells, adjust density to 1×10^6 cells/mL, and uniformly seed into 24-well plates at 300 µL per well. […] Centrifuge at 1600 rpm for 5 min, remove supernatant, resuspend cells in 300 µL fresh medium, and place into Transwell chambers. Add 600 µL normal medium (control group) or tumor-conditioned medium (model group) to the lower chamber. Co-culture for 24 h.

physchem = conditions: water, 37 °C, thermodynamic from solid
4T1 cells = type: in vivo, BALB/c mice; conditions: 4T1, oral 40 µmol/kg/day, 3 weeks
Protocol: 4T1 cells were cultured and expanded in vitro. […] A 100 µL aliquot of this suspension was injected subcutaneously into the left forelimb axilla of female BALB/c mice. […] Daily oral administration was performed for 3 weeks. During the treatment period, mouse body weight and tumor diameter were measured daily. At the end of the experiment, mice were euthanized by cervical dislocation, and tumors were removed for weighing. Tumor volume (TV) was calculated using the formula: TV = 1/2 × a × b^2, where a represents the longest diameter of the tumor and b represents the shortest diameter.

[4] = Conversion rate of salt-form prodrugs to parent compound in HEPES buffer solution; type: physicochemical; conditions: conversion to Compound 83, HEPES buffer pH 7.4, 37 °C
Outline: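 Salt-form prodrug dissolved in water was mixed 1:1 with HEPES buffer pH 7.4 (or mouse serum) and incubated at 37°C. Aliquots were quenched with methanol and centrifuged, and supernatants taken at 1, 2, 4, 8 and 12 h were analysed by HPLC. Conversion was followed by peak areas.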

[5] = Conversion rate of salt-form prodrugs to parent compound in mouse plasma; type: in vitro ADME; conditions: conversion to Compound 83, mouse plasma, 37 °C

Structure (SMILES): CC(C)(O)c1coc(S(=O)(=O)NC(=O)Nc2c3c(cc4c2CCC4)CCC3)c1 [MCC950, reference compound]
- 24-hour urine protein level (lupus nephritis): 0.89±0.11
- BUN (lupus nephritis; serum): 12.08±2.01
- Scr (lupus nephritis; serum): 22.18±3.41
- Kim-1 (lupus nephritis; urine): 0.53±0.06
- β-MG (lupus nephritis; urine): 15.41±0.39
- Il1 [1]: 5.43±0.71
- Il6 [1]: 9.52±0.84
- Tnf [1]: 4.33±0.52

Structure (SMILES): COc1cc(C2Oc3cc([C@H]4Oc5cc(O)cc(O)c5C(=O)[C@@H]4O)ccc3OC2CO)ccc1O (stereo partly shown) [Silybin, reference compound]
- Acta2 [2]: 2.91±0.48
- Col1a1 [2]: 1.84±0.17
- Tgfb1 [2]: 1.11±0.08
- ALT [3]: 121.58±15.45
- AST [3]: 301.45±38.44

Structure (SMILES): C=C1C(=O)O[C@H]2[C@H]1CCC(C)=C1CC[C@@](C)(OC(=O)NCCN3CCOCC3)[C@@H]12 [compound 78]
- CCR2 mRNA suppression rate in MDSCs (%) (CCR2 mRNA; 1 µM): 23.0%
- CCR2 mRNA suppression rate in MDSCs (%) (CCR2 mRNA; 10 µM): 52.7%
- Suppression Rate (%) (MDSCs; 1 µM): 29.0%
- Suppression Rate (%) (MDSCs; 10 µM): 67.1%

Structure (SMILES): C=C1C(=O)O[C@H]2[C@H]1CCC(C)=C1CC[C@@](C)(OC(=O)N3CCCCC3)[C@@H]12 [compound 83]
- CCR2 mRNA suppression rate in MDSCs (%) (CCR2 mRNA; 1 µM): 17.0%
- CCR2 mRNA suppression rate in MDSCs (%) (CCR2 mRNA; 10 µM): 70.0%
- solubility (physchem): 152 µg/mL (≈ 423 µM)
- Suppression Rate (%) (MDSCs; 1 µM): 29.4%
- Suppression Rate (%) (MDSCs; 10 µM): 75.9%

Structure (SMILES): C=C1C(=O)O[C@H]2[C@H]1CCC(C)=C1CC[C@@](C)(OC(=O)NCCN3CCOCC3)[C@@H]12 [compound 99]
- antitumor effects (4T1 cells): no significant antitumor effects

Structure (SMILES): CC1=C2CC[C@@](C)(OC(=O)N3CCCCC3)[C@@H]2[C@H]2OC(=O)[C@@H](CN(C)C)[C@@H]2CC1 [compound 102]
- Release rate ([4]; 1 h): 6.8%
- Release rate ([4]; 2 h): 14.6%
- Release rate ([4]; 4 h): 24.8%
- Release rate ([4]; 8 h): 43.0%
- Release rate ([4]; 12 h): 51.8%
- Release rate ([5]; 1 h): 6.6%
- Release rate ([5]; 2 h): 14.0%
- Release rate ([5]; 4 h): 26.0%
- Release rate ([5]; 8 h): 42.4%
- Release rate ([5]; 12 h): 47.8%
- antitumor effects (4T1 cells): no significant antitumor effects
